Among the data in PubChem BioAssay AID1963428 (Molecular Pharmacology Branch, DTP, NCI, 2024) are IC50 and viability, T/C values, retold here.

The subject of the assay is 171881-019-R-J1-PDC complex spheroid growth, % test/control. The experiment in a line: Anticancer human tumor 171881-019-R-J1-PDC patient-derived invasive breast carcinoma cell line growth inhibition [Asc]. Conditions: for viability, T/C: stronger effect = lower value. The essentials:
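Concentration series start at each agent's clinical Cmax, or at 10 microM when none is established, and drop in half-log steps; agents are applied alone or together to complex spheroids built with HUVEC and hMSC.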

The mark [1] stands for this setting: curve of first compound, second compound 0.01 µM.
The mark [2] stands for this setting: curve of first compound, second compound 0.0316 µM.
Setting [3] is: curve of first compound, second compound 0.1 µM.
Setting [4] is: curve of first compound, second compound 0.316 µM.
[5] abbreviates: curve of first compound, second compound 1 µM.
[6] abbreviates: second compound 0.01 µM, first compound 0.0316 µM.
Where [7] appears, read: second compound 0.01 µM, first compound 0.1 µM.
[8] abbreviates: second compound 0.01 µM, first compound 0.316 µM.
The mark [9] stands for this setting: second compound 0.01 µM, first compound 1 µM.
The mark [10] stands for this setting: second compound 0.0316 µM, first compound 0.0316 µM.
Setting [11] is: second compound 0.0316 µM, first compound 0.1 µM.
The mark [12] stands for this setting: second compound 0.0316 µM, first compound 0.316 µM.
The mark [13] stands for this setting: second compound 0.0316 µM, first compound 1 µM.
Where [14] appears, read: second compound 0.1 µM, first compound 0.0316 µM.
The mark [15] stands for this setting: second compound 0.1 µM, first compound 0.1 µM.
[16] abbreviates: second compound 0.1 µM, first compound 0.316 µM.
The mark [17] stands for this setting: second compound 0.1 µM, first compound 1 µM.
Where [18] appears, read: second compound 0.316 µM, first compound 0.0316 µM.
The mark [19] stands for this setting: second compound 0.316 µM, first compound 0.1 µM.
Where [20] appears, read: second compound 0.316 µM, first compound 0.316 µM.
The mark [21] stands for this setting: second compound 0.316 µM, first compound 1 µM.
The mark [22] stands for this setting: second compound 1 µM, first compound 0.0316 µM.
Where [23] appears, read: second compound 1 µM, first compound 0.1 µM.
Where [24] appears, read: second compound 1 µM, first compound 0.316 µM.
Setting [25] is: second compound 1 µM, first compound 1 µM.
The mark [26] stands for this setting: second compound 0.1 µM, first compound 3.16 µM.
The mark [27] stands for this setting: second compound 0.1 µM, first compound 10 µM.
Setting [28] is: second compound 0.316 µM, first compound 3.16 µM.
Setting [29] is: second compound 0.316 µM, first compound 10 µM.
The mark [30] stands for this setting: second compound 1 µM, first compound 3.16 µM.
[31] abbreviates: second compound 1 µM, first compound 10 µM.

Broadly, the IC50 is the midpoint of a concentration-inhibition curve. For orientation: viability, T/C means the ratio of treated to control.

SMILES strings stand for the structures. Several values for one entry are separate records, joined by “and”; a condition that tells them apart may be missing. Equal values may be shown once.
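For viability, T/C in this document: spheroids exposed to compounds for 7 days.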

For the compound `CCN1CCN(Cc2ccc(Nc3ncc(F)c(-c4cc(F)c5nc(C)n(C(C)C)c5c4)n3)nc2)CC1` + CNC(C)C(=O)NC1CN(S(=O)(=O)c2cccc(S(=O)(=O)N3CCC4CCC(C(=O)NC(c5ccccc5)c5ccccc5)N4C(=O)C(NC(=O)C(C)NC)C3)c2)CCC2CCC(C(=O)NC(c3ccccc3)c3ccccc3)N2C1=O, the IC50 reads like this: under setting [1], greater than 1 µM; under setting [2], greater than 1 µM; under setting [3], greater than 1 µM; under setting [4], greater than 1 µM; under setting [5], greater than 1 µM. The viability, T/C (second compound 0.01 µM, first compound 0.00316 µM) is 94.1%; the viability, T/C (second compound 0.01 µM, first compound 0.01 µM) was 102%; the viability, T/C under setting [6] was 102%; the viability, T/C under setting [7] is 113%; the viability, T/C under setting [8] is 131%; the viability, T/C under setting [9] was 147%. Also, the viability, T/C runs as follows: (second compound 0.0316 µM, first compound 0.00316 µM) 89.7%; (second compound 0.0316 µM, first compound 0.01 µM) 97.9%; under setting [10], 112%; under setting [11], 124%; under setting [12], 149%; under setting [13], 143%. The viability, T/C is, setting by setting: (second compound 0.1 µM, first compound 0.00316 µM) 112%; (second compound 0.1 µM, first compound 0.01 µM) 107%; under setting [14], 117%; under setting [15], 128%; under setting [16], 143%; under setting [17], 174%. Moreover, the viability, T/C is, setting by setting: (second compound 0.316 µM, first compound 0.00316 µM) 101%; (second compound 0.316 µM, first compound 0.01 µM) 110%; under setting [18], 121%; under setting [19], 130%; under setting [20], 142%; under setting [21], 143%. The viability, T/C by setting is: (second compound 1 µM, first compound 0.00316 µM) 89.7%; (second compound 1 µM, first compound 0.01 µM) 110%; under setting [22], 117%; under setting [23], 139%; under setting [24], 131%; under setting [25], 146%.
Take `C=CC(=O)N1CCN(c2nc(=O)n(-c3c(C)ccnc3C(C)C)c3nc(-c4c(O)cccc4F)c(F)cc23)C(C)C1` (centres undefined): the viability, T/C (compound 0.0316 µM) was 94.2% and 93.7% and 99.4%; the viability, T/C (compound 0.1 µM) is 95.4% and 109% and 106%; the viability, T/C (compound 0.316 µM) was 90.9% and 107% and 99.9%; the viability, T/C (compound 1 µM) is 89.2% and 92.1% and 88.4%; the viability, T/C (compound 3.16 µM) is 80.5% and 93.2% and 83.7%; the viability, T/C (compound 10 µM) is 71.1% and 78.1% and 83.2%. Moreover, the concentration for half-maximal inhibition (IC50) (curve of compound) is greater than 10 µM.
In the case of `C#Cc1c(F)ccc2cc(O)cc(-c3ncc4c(N5CC6CCC(C5)N6)nc(OCC56CCCN5CC(F)C6)nc4c3F)c12` (centres undefined) + CNC(C)C(=O)NC1CN(S(=O)(=O)c2cccc(S(=O)(=O)N3CCC4CCC(C(=O)NC(c5ccccc5)c5ccccc5)N4C(=O)C(NC(=O)C(C)NC)C3)c2)CCC2CCC(C(=O)NC(c3ccccc3)c3ccccc3)N2C1=O, the half-inhibitory concentration (IC50) was greater than 10 µM under setting [1]; greater than 10 µM under setting [2]; greater than 10 µM under setting [3]; greater than 10 µM under setting [4]; greater than 10 µM under setting [5]. In addition, the viability, T/C is, setting by setting: under setting [6], 98%; under setting [7], 116%; under setting [8], 125%; under setting [9], 187%; (second compound 0.01 µM, first compound 3.16 µM) 254%; (second compound 0.01 µM, first compound 10 µM) 248%. For the same compound, the viability, T/C was 107% under setting [10]; 107% under setting [11]; 131% under setting [12]; 216% under setting [13]; 261% (second compound 0.0316 µM, first compound 3.16 µM); 255% (second compound 0.0316 µM, first compound 10 µM). The viability, T/C is, setting by setting: under setting [14], 105%; under setting [15], 122%; under setting [16], 134%; under setting [17], 168%; under setting [26], 247%; under setting [27], 245%. For the same compound, the viability, T/C is 102% under setting [18]; 109% under setting [19]; 109% under setting [20]; 170% under setting [21]; 214% under setting [28]; 230% under setting [29]. Further, the viability, T/C by setting is: under setting [22], 99.3%; under setting [23], 109%; under setting [24], 138%; under setting [25], 170%; under setting [30], 219%; under setting [31], 235%.
As for `C#Cc1c(F)ccc2cc(O)cc(-c3ncc4c(N5CC6CCC(C5)N6)nc(OCC56CCCN5CC(F)C6)nc4c3F)c12` (centres undefined) + Cc1c(S(C)(=O)=O)c(-c2cc(F)cc(N3CCN(c4ccc(NS(=O)(=O)c5ccc(NC(CCN6CCC(C(=O)OCCCP(=O)(O)O)CC6)CSc6ccccc6)c(S(=O)(=O)C(F)(F)F)c5)cc4)CC3)c2)c(-c2ccc(Cl)cc2)n1C(C)C, the concentration for half-maximal inhibition (IC50) is greater than 10 µM under setting [3]; greater than 10 µM under setting [4]; greater than 10 µM under setting [5]; 6.86 µM (curve of first compound, second compound 3.16 µM); 4 µM (curve of first compound, second compound 10 µM). The viability, T/C runs as follows: under setting [14], 103%; under setting [15], 116%; under setting [16], 152%; under setting [17], 167%; under setting [26], 154%; under setting [27], 111%. Also, the viability, T/C runs as follows: under setting [18], 138%; under setting [19], 169%; under setting [20], 219%; under setting [21], 165%; under setting [28], 112%; under setting [29], 86%. Besides, the viability, T/C runs as follows: under setting [22], 162%; under setting [23], 177%; under setting [24], 165%; under setting [25], 131%; under setting [30], 84.3%; under setting [31], 61.1%. Besides, the viability, T/C is 179% (second compound 3.16 µM, first compound 0.0316 µM); 179% (second compound 3.16 µM, first compound 0.1 µM); 155% (second compound 3.16 µM, first compound 0.316 µM); 97.6% (second compound 3.16 µM, first compound 1 µM); 63.2% (second compound 3.16 µM, first compound 3.16 µM); 43% (second compound 3.16 µM, first compound 10 µM). In addition, the viability, T/C is 179% (second compound 10 µM, first compound 0.0316 µM); 186% (second compound 10 µM, first compound 0.1 µM); 135% (second compound 10 µM, first compound 0.316 µM); 91.5% (second compound 10 µM, first compound 1 µM); 58% (second compound 10 µM, first compound 3.16 µM); 33.9% (second compound 10 µM, first compound 10 µM).
Regarding `C=C(F)C(=O)N1CCN(c2nc(OCC3CCCN3C)nc3c2CCN(c2cccc4cccc(Cl)c24)C3)CC1CC#N` (centres undefined), the viability, T/C was 85.9% and 113% and 104% (compound 0.0316 µM); 86% and 98.9% and 99.5% (compound 0.1 µM); 116% and 99.8% and 93.9% (compound 0.316 µM); 82.4% and 111% and 84.5% (compound 1 µM); 98.7% and 103% and 95.5% (compound 3.16 µM); 0.42% and 0.28% and 0.66% (compound 10 µM). In addition, the half-maximal inhibitory concentration (IC50) (curve of compound) is 5.43 µM and 5.72 µM and 5.49 µM.
